Reference: ChEMBL document CHEMBL5352415, “Discovery of new macrophage M2 polarization modulators as multiple sclerosis treatment agents that enable the inflammation microenvironment remodeling” (Eur J Med Chem, 2022)
Calls of active or inactive are those of the source. The rule behind the calls is not given here.

Key:
[1] = test system: Mus musculus; assay: (§1) Anti-inflammatory activity in MOG (35 to 55 residues)/pertussis toxin-induced experimental autoimmune encephalomyelitis C57BL/6 mouse model assessed as inhibition of CD4+ T cell differentiation by measuring reduction in Th17 (Il-4+) cells in DLN administered orally once daily starting from day 7 to day 20 by flow cytometric analysis; format: functional, organism-based; conditions: dose 75-150 mg/kg, route po, time 14.0 day
[2] = test system: Mus musculus; assay: Anti-inflammatory activity in MOG (35 to 55 residues)/pertussis toxin-induced experimental autoimmune encephalomyelitis C57BL/6 mouse model assessed as decrease in F4/80+ CD86+ M1 macrophage in spleen at 75 to 150 mg/kg, po administered once daily starting from day 7 to day 20 by flow cytometric analysis; format: functional, organism-based; conditions: dose 75-150 mg/kg, time 14.0 day
[3] = test system: Mus musculus; assay: Anti-inflammatory activity in MOG (35 to 55 residues)/pertussis toxin-induced experimental autoimmune encephalomyelitis C57BL/6 mouse model assessed as decrease in disease progression by measuring clinical score at 75 to 150 mg/kg, po administered once daily starting from day 7 to day 20; format: functional, organism-based; conditions: dose 75-150 mg/kg, time 14.0 day
[4] = Inhibition of M1 macrophage polarization in C57BL/6 mouse BMDM cells assessed as fold decrease in Inos gene level at 1 uM incubated for 24 hrs by qRT-PCR analysis (reference value: 1); format: functional
[5] = Inhibition of LPS-induced M1 macrophage polarization in C57BL/6 mouse BMDM cells assessed as fold decrease in Inos gene level at 1 uM preincubated with LPS for 24 hrs followed by compound addition and measured after 24 hrs by qRT-PCR analysis (reference value: 524.05 +/- 24.75); format: functional
[6] = Cmax in ICR mouse at 50 mg/kg, po measured upto 24 hrs by LC/MS analysis; format: ADME, organism-based; set-up: dose 50 mg/kg, time < 24 hrs, route po; conditions: in vivo
[7] = test system: Mus musculus; assay: Anti-inflammatory activity in MOG (35 to 55 residues)/pertussis toxin-induced experimental autoimmune encephalomyelitis C57BL/6 mouse model assessed as decrease in infiltrated inflammatory cells administered orally once daily starting from day 7 to day 20 by H&E staining based analysis; format: functional, organism-based; conditions: dose 75-150 mg/kg, route po, time 14.0 day
[8] = test system: Mus musculus; assay: Anti-inflammatory activity in MOG (35 to 55 residues)/pertussis toxin-induced experimental autoimmune encephalomyelitis C57BL/6 mouse model assessed as inhibition of M1 macrophage polarization by measuring decrease in Mcp1 mRNA expression in CNS administered orally once daily starting from day 7 to day 20 by qRT-PCR analysis; format: functional, organism-based; conditions: dose 75-150 mg/kg, route po, time 14.0 day
[9] = test system: Mus musculus; assay: as §1, with “spleen” for “DLN”; format: functional, organism-based; conditions: dose 75-150 mg/kg, route po, time 14.0 day
[10] = test system: Mus musculus; assay: Anti-inflammatory activity in MOG (35 to 55 residues)/pertussis toxin-induced experimental autoimmune encephalomyelitis C57BL/6 mouse model assessed as T cell activation by measuring decrease in CD44hi CD62Llo T cells in spleen at 75 to 150 mg/kg, po administered once daily starting from day 7 to day 20 by flow cytometric analysis; format: functional; set-up: scale not given: the % may be the effect or the level left; conditions: dose 75-150 mg/kg, time 14 day
[11] = Inhibition of M1 macrophage polarization in C57BL/6 mouse BMDM cells assessed as fold change in IL-6 gene level at 1 uM incubated for 24 hrs by qRT-PCR analysis (reference value: 1); format: functional

Cl.Cn1ncc(Br)c1-c1ccc(C(=O)N[C@@H]2CNCC[C@H]2c2ccc(F)c(F)c2)cc1C1CC1
Activity [1]: Dose-Dependent Effect | Activity [2]: Active | Activity [3]: Active | fold change (FC) [4]: 0.49 | fold change (FC) [5]: 195.4 | Cmax [6]: 1990 ng/mL | Activity [7]: Dose-Dependent Effect | Activity [8]: Dose-Dependent Effect | Activity [9]: Dose-Dependent Effect | Activity [10]: 19% | fold change (FC) [11]: 2.22
